This note sets out measurements from US8410097B2 (priority 2005, dated 2013).

What is called Ki is a measure of affinity in units of concentration, obtained from inhibition or displacement.

Read-outs that look alike come from different tables or passages of the source.

One experiment addresses T1, CB1 cannabinoid receptor (Rattus norvegicus, UniProt P20272).
T1 construct: membranes were prepared from rat forebrain membranes; from tissue; host or cells: rat forebrain membranes
The experiment is described as follows: biochemical. Type of experiment: binding. As to conditions: Table 6, rat forebrain membranes, 0.8 nM [3H] CP-55,940. The method, then: Some of the inventive analogs were tested for CB2 receptor binding affinity and for CB1 receptor affinity (to determine selectivity). […] The lower the Ki value the higher the binding affinity. […]
Membranes, previously frozen at −80° C., were thawed on ice. To the stirred suspension was added three volumes of TME (25 mM Tris-HCl buffer, 5 mM MgCl2 and 1 mM EDTA) at a pH 7.4. The suspension was incubated at 4° C. for 30 min. At the end of the incubation, the membranes were pelleted and washed three times with TME.
(§1) The treated membranes were subsequently used in the binding assay described below. Approximately 30 μg of membranes were incubated in silanized 96-well microtiter plate with TME containing 0.1% essentially fatty acid-free bovine serum albumin (BSA), 0.8 nM [^3H] […] Radioactivity was detected using MicroScint 20 scintillation cocktail added directly to the dried filterplates, and the filterplates were counted using a Packard Instruments Top-Count. […] Data collected from three independent experiments performed with duplicate determinations was normalized between 100% and 0% specific binding for [^3H] […] The normalized data was analyzed using a 4-parameter nonlinear logistic equation to yield IC50 values.

The target in another experiment is CB2 cannabinoid receptor (Mus musculus, UniProt P47936). As to the kind of experiment: biochemical. Type of experiment: binding. The settings on record: Table 6, mouse spleen membranes, [3H] CP-55,940. The method, then:
Some of the inventive analogs were tested for CB2 receptor binding affinity and for CB1 receptor affinity (to determine selectivity). […] The lower the Ki value the higher the binding affinity.
as §1
Silanized centrifuge tubes were used throughout to minimize receptor loss due to adsorption. The CB2 binding assay was conducted in the same manner as for the CB1 binding assay. The binding affinities (Ki) were also expressed in nanomoles (nM).

T1 sequence (P20272 whole entry): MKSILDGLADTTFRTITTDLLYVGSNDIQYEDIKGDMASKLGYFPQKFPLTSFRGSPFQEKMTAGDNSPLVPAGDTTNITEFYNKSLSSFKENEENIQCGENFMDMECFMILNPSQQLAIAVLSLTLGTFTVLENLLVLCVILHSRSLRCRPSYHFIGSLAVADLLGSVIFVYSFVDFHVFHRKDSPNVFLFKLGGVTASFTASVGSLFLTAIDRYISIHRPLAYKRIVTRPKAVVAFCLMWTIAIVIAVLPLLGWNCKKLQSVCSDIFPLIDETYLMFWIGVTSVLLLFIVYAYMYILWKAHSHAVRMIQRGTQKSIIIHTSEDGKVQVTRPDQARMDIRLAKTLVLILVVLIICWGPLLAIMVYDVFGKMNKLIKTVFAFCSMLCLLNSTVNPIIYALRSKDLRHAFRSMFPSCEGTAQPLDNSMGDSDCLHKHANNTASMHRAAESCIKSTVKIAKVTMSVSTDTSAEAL
Chain of CB2 cannabinoid receptor (P47936 whole entry): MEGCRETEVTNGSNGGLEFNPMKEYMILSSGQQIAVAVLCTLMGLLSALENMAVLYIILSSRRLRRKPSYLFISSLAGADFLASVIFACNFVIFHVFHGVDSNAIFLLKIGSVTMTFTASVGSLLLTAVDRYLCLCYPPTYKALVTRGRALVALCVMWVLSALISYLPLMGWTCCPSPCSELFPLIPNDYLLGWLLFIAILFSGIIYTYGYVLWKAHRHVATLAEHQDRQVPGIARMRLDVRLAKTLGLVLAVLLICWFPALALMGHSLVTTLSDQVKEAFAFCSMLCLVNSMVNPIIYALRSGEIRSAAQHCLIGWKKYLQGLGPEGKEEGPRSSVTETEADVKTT

For the molecule `Cc1cc(Br)ccc1-n1c(-c2ccc(Cl)cc2Cl)nc(C(=O)NN2CCCCC2)c1C` [Compound 1-1], the Ki was determined as 29.8 nM on CB1 cannabinoid receptor (CB1 Ki) and 808 nM on CB2 cannabinoid receptor (read-out: CB2 Ki).

As to `Cc1c(C(=O)NN2CCCCC2)nc(-c2ccc(Cl)cc2Cl)n1-c1ccc(Br)cc1` [Compound 1-2], the Ki on CB1 cannabinoid receptor (CB1 Ki) was 11.5 nM; on CB2 cannabinoid receptor (CB2 Ki), 462 nM.

For `Cc1cc(Br)ccc1-n1c(-c2ccc(Cl)cc2Cl)nc(C(=O)NN2CCCCC2)c1CO` [Compound 1-3], the Ki was determined as 54.7 nM at CB1 cannabinoid receptor (CB1 Ki) and 803 nM on CB2 cannabinoid receptor (read-out: CB2 Ki).

For the molecule `O=C(NN1CCCCC1)c1nc(-c2ccc(Cl)cc2Cl)n(-c2ccc(Br)cc2)c1CO` [Compound 1-4], the Ki came out at 10.8 nM at CB1 cannabinoid receptor (CB1 Ki) and 319 nM on CB2 cannabinoid receptor (CB2 Ki).

With `CN(C(=O)c1nc(-c2ccc(Cl)cc2Cl)n(-c2ccc(Br)cc2)c1CO)C1CCCCC1` [Compound 1-5], the results for the Ki at CB1 cannabinoid receptor (CB1 Ki) and at CB2 cannabinoid receptor (read-out: CB2 Ki) were 28.8 nM and 3780 nM, respectively.

Consider `Cc1c(C(=O)NN2CCCCC2)nc(-c2ccc(Cl)cc2Cl)n1-c1ccc(I)cc1` [Compound 1-6], for which the Ki on CB1 cannabinoid receptor (CB1 Ki) was determined as 2.7 nM; on CB2 cannabinoid receptor (read-out: CB2 Ki), 4310 nM.

In the case of `O=C(NN1CCCCC1)c1nc(-c2ccc(Cl)cc2Cl)n(-c2ccc(I)cc2)c1CO` [Compound 1-7], the inhibition constant Ki came out at 1.5 nM on CB1 cannabinoid receptor (CB1 Ki) and 1650 nM on CB2 cannabinoid receptor (read-out: CB2 Ki).

As for `Cc1c(C(=O)NN2CCCCC2)nc(-c2ccc(Cl)cc2Cl)n1-c1ccc(C#N)cc1` [Compound 1-8], the Ki at CB1 cannabinoid receptor (CB1 Ki) came out at 57 nM; on CB2 cannabinoid receptor (read-out: CB2 Ki), 7220 nM.

For `N#Cc1ccc(-n2c(-c3ccc(Cl)cc3Cl)nc(C(=O)NN3CCCCC3)c2CO)cc1` [Compound 1-9], the Ki on CB1 cannabinoid receptor (CB1 Ki) is 51 nM; at CB2 cannabinoid receptor (read-out: CB2 Ki), 5460 nM.

As to `O=C(NC1CCCCC1)c1nc(-c2ccc(Cl)cc2Cl)n(-c2ccc(Br)cc2)c1CO` [Compound 1-10], the Ki is 4.6 nM at CB1 cannabinoid receptor (CB1 Ki) and 3030 nM on CB2 cannabinoid receptor (read-out: CB2 Ki).

In the case of `CN(C(=O)c1nc(-c2ccc(Cl)cc2Cl)n(-c2ccc(I)cc2)c1CO)C1CCCCC1` [Compound 1-11], the Ki worked out at 6.4 nM at CB1 cannabinoid receptor (CB1 Ki) and 1150 nM on CB2 cannabinoid receptor (read-out: CB2 Ki).

In the case of `O=C(NC1CCCCC1)c1nc(-c2ccc(Cl)cc2Cl)n(-c2ccc(I)cc2)c1CO` [Compound 1-12], the Ki at CB1 cannabinoid receptor (CB1 Ki) was found to be 19 nM; at CB2 cannabinoid receptor (read-out: CB2 Ki), 22400 nM.

Take `Cc1c(C(=O)N2CCCCC2)nc(-c2ccc(Cl)cc2Cl)n1-c1ccc(Br)cc1` [Compound 1-13]: the Ki is 22 nM on CB1 cannabinoid receptor (CB1 Ki) and 2450 nM at CB2 cannabinoid receptor (read-out: CB2 Ki).

In the case of `Cc1c(C(=O)NN2CCCCC2)nc(-c2ccc(Cl)cc2Cl)n1-c1ccc(-c2cccnc2)cc1` [Compound 1-14], the values for the Ki at CB1 cannabinoid receptor (CB1 Ki) and on CB2 cannabinoid receptor (read-out: CB2 Ki) were 39.8 nM and 3330 nM, respectively.

In the case of `O=C(NN1CCCCC1)c1nc(-c2ccc(Cl)cc2Cl)n(-c2ccc(-c3cccnc3)cc2)c1CO` [Compound 1-15], the figures for the inhibitory constant (Ki) at CB1 cannabinoid receptor (CB1 Ki) and at CB2 cannabinoid receptor (read-out: CB2 Ki) were 23 nM and 2780 nM, respectively.

Consider `Cc1c(C(=O)NN2CCCCC2)nc(-c2ccc(Cl)cc2Cl)n1-c1ccc(-c2nnn[nH]2)cc1` [Compound 1-16], for which the Ki at CB1 cannabinoid receptor (read-out: CB1 Ki) worked out at 404 nM; at CB2 cannabinoid receptor (read-out: CB2 Ki), 10700 nM.

For the molecule `Cc1c(C(=O)NN2CCCCC2)nc(-c2ccc(Cl)cc2Cl)n1-c1ccc(-c2nnnn2C)cc1` [Compound 1-17], the results for the Ki on CB1 cannabinoid receptor (read-out: CB1 Ki) and at CB2 cannabinoid receptor (read-out: CB2 Ki) were 2290 nM and 24500 nM, respectively.

For `Cc1c(C(=O)NN2CCCCC2)nc(-c2ccc(Cl)cc2Cl)n1-c1ccc(-c2nnn(C)n2)cc1` [Compound 1-18], the Ki was found to be 6.5 nM on CB1 cannabinoid receptor (CB1 Ki) and 5080 nM on CB2 cannabinoid receptor (read-out: CB2 Ki).

For `O=C(NN1CCCCC1)c1nc(-c2ccc(Cl)cc2Cl)n(-c2ccc(-c3nnn[nH]3)cc2)c1CO` [Compound 1-19], the Ki turned out to be 5760 nM at CB1 cannabinoid receptor (read-out: CB1 Ki) and 22300 nM at CB2 cannabinoid receptor (read-out: CB2 Ki).

In the case of `Cn1nnnc1-c1ccc(-n2c(-c3ccc(Cl)cc3Cl)nc(C(=O)NN3CCCCC3)c2CO)cc1` [Compound 1-20], the Ki amounted to 400 nM on CB1 cannabinoid receptor (read-out: CB1 Ki) and 12300 nM on CB2 cannabinoid receptor (read-out: CB2 Ki).

Turning to `Cn1nnc(-c2ccc(-n3c(-c4ccc(Cl)cc4Cl)nc(C(=O)NN4CCCCC4)c3CO)cc2)n1` [Compound 1-21], the Ki turned out to be 10.5 nM on CB1 cannabinoid receptor (CB1 Ki) and 539 nM on CB2 cannabinoid receptor (read-out: CB2 Ki).

For the molecule `Cc1c(C(=O)N(C)C2CCCCC2)nc(-c2ccc(Cl)cc2Cl)n1-c1ccc(-c2nnn[nH]2)cc1` [Compound 1-22], the Ki at CB1 cannabinoid receptor (read-out: CB1 Ki) is 359 nM; at CB2 cannabinoid receptor (read-out: CB2 Ki) it was 26300 nM.
